Assay results reported in US11371055B2, “Herbicide resistance genes” (CORTEVA AGRISCIENCE LLC, priority 2005, dated 2022).

Experiments:
[1] = tested on: wild-type tobacco line (KY160); assay: Field tolerance of tobacco, wild-type line; format: in vivo, Nicotiana tabacum
Protocol: (§1) Field level tolerance trials were conducted on three AAD-12 (v1) lines (events pDAS1580-[1]-018.001, pDAS1580-[1]-004.001 and pDAS1580-[1]-020.016) and one wild-type line (KY160) at field stations in Indiana and Mississippi. Tobacco transplants were grown in the greenhouse by planting T1 seed in 72 well transplant flats (Hummert International) containing Metro 360 media according to growing conditions indicated above. The null plants were selectively removed by Liberty selection as previously described. The transplant plants were transported to the field stations and planted at either 14 or 24 inches apart using industrial vegetable planters. Drip irrigation at the Mississippi site and overhead irrigation at the Indiana site were used to keep plants growing vigorously.
(§2) The experimental design was a split plot design with 4 replications. The main plot was herbicide treatment and the sub-plot was tobacco line. The herbicide treatments were 2,4-D (dimethylamine salt) at 280, 560, 1120, 2240 and 4480 g ac/ha, triclopyr at 840 g ae/ha, fluroxypyr at 280 g ac/ha and an untreated control. Plots were one row by 25-30 ft. Herbicide treatments were applied 3-4 weeks after transplanting using compressed air backpack sprayer delivering 187 L/ha carrier volume at 130-200 kpa pressure. Visual rating of injury, growth inhibition, and epinasty were taken at 7, 14 and 21 days after treatment.

[2] = tested on: AAD-1 (v3) (pDAB721) T2 tobacco plants; assay: Auxinic herbicide cross tolerance of stacked tobacco, AAD-1 T2; format: in vivo, Nicotiana tabacum
Protocol: (§3) Homozygous AAD-12 (v1) (pDAS1580) and AAD-1 (v3) (pDAB721) plants (see PCT/US2005/014737 for the latter) were both reciprocally crossed and F1 seed was collected. The F1 seed from two reciprocal crosses of each gene were stratified and treated 4 reps of each cross were treated under the same spray regimen as used for the other testing with one of the following treatments: 70, 140, 280 g ac/ha fluroxypyr (selective for the AAD-12 (v1) gene); 280, 560, 1120 g ae/ha R-dichloroprop (selective for the AAD-1 (v3) gene); or 560, 1120, 2240 g ae/ha 2,4-D DMA (to confirm 2,4-D tolerance). Homozygous T2 plants of each gene were also planted for use as controls. Plants were graded at 3 and 14 DAT.

[3] = tested on: AAD-12 (v1) tobacco lines (pDAS1580-[1]-018.001, pDAS1580-[1]-004.001, pDAS1580-[1]-020.016); assay: Field tolerance of tobacco, AAD-12 lines; format: in vivo, Nicotiana tabacum
Protocol: as §1, §2

wildtype tobacco = assay: Auxinic herbicide cross tolerance of stacked tobacco, wildtype; format: in vivo, Nicotiana tabacum; conditions: KY160 wildtype control
Protocol: as §3

[4] = tested on: AAD-12 (v1) pDAB4101 corn events (4101(0)003.R.003.AF and 4101(0)005.R001.AF); assay: Field tolerance of corn: visual injury and brace root injury, AAD-12 events; format: in vivo, Zea mays; conditions: for % Visual Injury 14DAT / Brace Root Injury Rating (0-10 scale) 28DAT: 280 g ae/ha
Protocol: Seeds were planted with cone planter on 40-inch row spacing at Wayside and 30 inch spacing at Fowler. […] Herbicide treatments were 2,4-D (dimethylamine salt) at 1120, 2240 and 4480 g ae/ha, triclopyr at 840 g ae/ha, fluroxypyr at 280 g ae/ha and an untreated control. The AAD-12 (v1) events contained the AHAS gene as a selectable marker. The F2 corn events were segregating so the AAD-12 (v1) plants were treated with imazethapyr at 70 g ae/ha to remove the null plants. Herbicide treatments were applied when corn reached the V6 stage using compressed air backpack sprayer delivering 187 L/ha carrier volume at 130-200 kpa pressure. […]

[5] = tested on: AAD-12 (v1) canola events 3759(20)018.001 and 3759(18)030.001; assay: Field tolerance of canola, AAD-12 events; format: in vivo, Brassica napus
Protocol: Field level tolerance trial was conducted on two AAD-12 (v1) events 3759(20)018.001 and 3759(18)030.001 and a wild-type canola (Nex710) in Fowler, Ind. The experimental design was a randomized complete block design with 3 replications. Herbicide treatments were 2,4-D (dimethylamine salt) at 280, 560, 1120, 2240 and 4480 g ac/ha, triclopyr at 840 g ae/ha, fluroxypyr at 280 g ae/ha and an untreated control. Within each herbicide treatment, single 20 ft row/event for event 3759(18)030.0011, 3759(18)018.001 and wild-type line (Nex710) were planted with a 4 row drill on 8 inch row spacing. Herbicide treatments were applied when canola reached the 4-6 leaf stage using compressed air backpack sprayer delivering 187 L/ha carrier volume at 130-200 kpa pressure. […]

[6] = tested on: AAD-12 x AAD-1 F1 cross tobacco; assay: Auxinic herbicide cross tolerance of stacked tobacco, F1 cross; format: in vivo, Nicotiana tabacum; conditions: AAD-12 (v1) x AAD (v3) F1
Protocol: as §3

[7] = Fluroxypyr at 280 g ae/ha, 14 DAT
[8] = Fluroxypyr at 280 g ae/ha, 5DAT

With `Nc1c(Cl)c(F)nc(OCC(=O)O)c1Cl` [Fluroxypyr] the injury [1, 7] was 99%, the “Average % Injury across locations at 14 DAT” value ([1]; Wild type, 280 GM AE/HA) was 99% and the “Average % injury 14 DAT” value ([2]; 70 g ae/ha) was 40%. For the same compound, the “Average % injury 14 DAT” value ([2]; 140 g ae/ha) was 60%, the average injury [3, 7] was 11% and the “Average % Injury across locations at 14 DAT” value ([3]; pDAS1580-[1]-004.001, 280 GM AE/HA) was 11%. For the same compound, the “Average % Injury across locations at 14 DAT” value ([3]; pDAS1580-[1]-018.001, 280 GM AE/HA) was 12%, the “Average % Injury across locations at 14 DAT” value ([3]; pDAS1580-[1]-020.016, 280 GM AE/HA) was 11% and the “Average % injury 14 DAT” value (wildtype tobacco; 70 g ae/ha) was 40%. For the same compound, the “Average % injury 14 DAT” value (wildtype tobacco; 140 g ae/ha) was 65%, the “% Visual Injury 14DAT” value ([4]; AAD-12 4101(0)003.R.003.AF) was 1% and the “% Visual Injury 14DAT” value ([4]; AAD-12 4101(0)005.001.AF) was 5%. For the same compound, the “Brace Root Injury Rating (0-10 scale) 28DAT” value ([4]; AAD-12 event 4101(0)003.R.003.AF) was 0, the “Brace Root Injury Rating (0-10 scale) 28DAT” value ([4]; AAD-12 event 4101(0)005.001.AF) was 0 and the brace root injury ([4]; Fluroxypyr at 280 g ae/ha) was “no brace root injury”. The “visual injury, average” value [4, 8] was 8%, the “% Visual Injury at 14 DAT” value ([5]; AAD-12 event 3759(18)030.001, 280 GM AE/HA) was 8 a % and the “% Visual Injury at 14 DAT” value ([5]; AAD-12 event 3759(20)018.001, 280 GM AE/HA) was 7 a %. The average injury [5, 8] was 8%, the “Average % injury 14 DAT” value ([6]; 70 g ae/ha) was 0% and the “Average % injury 14 DAT” value ([6]; 140 g ae/ha) was 0%.
